Molecules are shown by their SMILES.

These results are taken from ChEMBL document CHEMBL1132851, “Synthesis of the repeating unit of the O-specific polysaccharide of Shigella sonnei and quantitation of its serologic activity” (Bioorg Med Chem Lett, 2000).

This experiment relates to Shigella sonnei. The experiment is described as follows: Compound was evaluated for the inhibition of hemolysis of Shigella sonneili polysaccharide-sensitized erythrocyte using a hyper-immune rabbit serum. The experiment is classed as functional, organism-based.

`CO[C@@H]1OC(C(=O)O)[C@H](O)C(O)[C@@H]1NC(C)=O` (stereo partly drawn): the IC50 was 6.9 mM.

On to `CO[C@@H]1OC(C(=O)O)[C@H](O[C@@H]2OC(C)[C@H](N)C(O)[C@@H]2NC(C)=O)C(O)[C@@H]1NC(C)=O` (stereo partly drawn), for which the half-maximal inhibitory concentration (IC50) worked out at 3.9 mM.

With `CO[C@@H]1OC(C)[C@H](N)C(O)[C@@H]1NC(C)=O` (stereo partly drawn), the half-maximal inhibitory concentration (IC50) was determined as 9.8 mM.
